The results in this text go back to patent US20090124607A1, “Novel Bicyclic Sulfonamides for Use as Glucocorticoid Receptor Modulators in the Treatment of Inflammatory Diseases” (priority 2005, published 2009).

For the test, the target named is T1, recombinant human GR (Homo sapiens, UniProt P04150).
T1 construct: purchased Panvera/Invitrogen P2812 (kit P2893)
T1 sequence (P04150 1-777): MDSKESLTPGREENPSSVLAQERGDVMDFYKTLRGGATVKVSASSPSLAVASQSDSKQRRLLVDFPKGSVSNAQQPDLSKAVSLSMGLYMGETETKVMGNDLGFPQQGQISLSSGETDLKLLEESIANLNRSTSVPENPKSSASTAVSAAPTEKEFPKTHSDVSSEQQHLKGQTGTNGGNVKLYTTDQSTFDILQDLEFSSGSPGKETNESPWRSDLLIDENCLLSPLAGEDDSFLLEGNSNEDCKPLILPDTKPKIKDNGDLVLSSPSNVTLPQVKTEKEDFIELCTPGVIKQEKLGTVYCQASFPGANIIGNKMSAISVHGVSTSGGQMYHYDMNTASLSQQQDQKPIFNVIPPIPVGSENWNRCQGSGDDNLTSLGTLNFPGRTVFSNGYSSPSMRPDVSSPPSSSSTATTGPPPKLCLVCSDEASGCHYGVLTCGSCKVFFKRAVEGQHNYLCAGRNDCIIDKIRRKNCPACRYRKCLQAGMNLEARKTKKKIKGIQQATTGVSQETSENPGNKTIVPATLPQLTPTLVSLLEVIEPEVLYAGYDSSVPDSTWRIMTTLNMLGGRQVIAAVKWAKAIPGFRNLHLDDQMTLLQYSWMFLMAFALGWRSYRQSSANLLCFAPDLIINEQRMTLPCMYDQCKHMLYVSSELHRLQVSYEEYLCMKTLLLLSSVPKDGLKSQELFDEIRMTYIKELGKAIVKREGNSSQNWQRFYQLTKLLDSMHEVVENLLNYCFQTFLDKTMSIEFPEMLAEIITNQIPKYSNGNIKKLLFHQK
As to the kind of experiment: Human Glucocorticoid Receptor (GR) Assay, fluorescence polarization (GRhuFL_FP_v2, GR-binders). In kind it is binding. The protocol: Human Glucocorticoid Receptor (GR) Assay
The assay is based on a commercial kit from Panvera/Invitrogen (Part number P2893). The assay technology is fluorescence polarization. […] The GR and Stabilizing Peptide reagents are stored at −70° C. while the GS Red is stored at −20° C. Also included in the kit are 1M DTT (Panvera, Part number P2325, stored at −20° C.) and GR Screening buffer 10× (Panvera, Part number P2814, stored at −70° C. initially but once thawed stored at room temperature). Avoid repeated freeze/thaws for all reagents. The GR Screening buffer 10× comprises 100 mM potassium phosphate, 200 mM sodium molybdate, 1 mM EDTA and 20% DMSO.
0% control was 100% DMSO and 100% control was 10 μM Dexamethasone. Background solution (8 μL; assay buffer 10×, Stabilizing Peptide, DTT and ice cold MQ water) was added to the background wells. GS Red solution (7 μL; assay buffer 10×, Stabilizing Peptide, DTT, GS Red and ice cold water) was added to all wells except background wells. GR solution (7 μL; assay buffer 10×, Stabilizing Peptide, DTT, GR and ice cold water) was added to all wells. The plate was sealed and incubated in a dark at room temperature for 2 hours.
(Fluorescence polarisation rises when a labelled molecule tumbles more slowly, as on binding a larger partner.)
In the case of `Cc1cc(C)c(S(=O)(=O)N[C@@H](C)CNc2cccc3c2cnn3-c2ccc(F)nc2)c(C)c1` [Example 3, N-((1S)-2-{[1-(6-Fluoropyridin-3-yl)-1H-indazol-4-yl]amino}-1-methylethyl)-2,4,6-trimethylbenzenesulfonamide], the IC50 – broadly, the concentration at which inhibition is half-maximal – came out at 2.3 nM.
The value for `Cc1cc(C)c(S(=O)(=O)NC(COc2cccc3c2cnn3-c2ccc(F)cc2)C(F)(F)F)c(C)c1` (centres unmarked) [Example 4] was 4 nM.
With `COc1ccc(-n2ncc3c(NC[C@H](C)NS(=O)(=O)c4c(C)cc(C)cc4C)cccc32)cc1` [Example 5, N-((1S)-2-{[1-(4-Methoxyphenyl)-1H-indazol-4-yl]amino}-1-methylethyl)-2,4,6-trimethylbenzenesulfonamide], the IC50 is 5.4 nM.
As to `Cc1cc(C)c(S(=O)(=O)N[C@@H](C)CNc2cccc3c2cnn3-c2cccc(OC(F)(F)F)c2)c(C)c1` [Example 6, 2,4,6-Trimethyl-N-[(1S)-1-methyl-2-({1-[3-(trifluoromethoxy)phenyl]-1H-indazol-4-yl}amino)ethyl]benzenesulfonamide], the IC50 stood at 15 nM.
As for `Cc1cc(C)c(S(=O)(=O)N[C@@H](C)CNc2cccc3c2cnn3-c2ccccc2)c(C)c1` [Example 7, 2,4,6-Trimethyl-N-{(1S)-1-methyl-2-[(1-phenyl-1H-indazol-4-yl)amino]ethyl}benzenesulfonamide], the figure is 3.5 nM.
The value for `COc1cccc(-n2ncc3c(NC[C@H](C)NS(=O)(=O)c4c(C)cc(C)cc4C)cccc32)c1` [Example 8, N-((1S)-2-{[1-(3-Methoxyphenyl)-1H-indazol-4-yl]amino}-1-methylethyl)-2,4,6-trimethylbenzenesulfonamide] was 6.9 nM; that for `Cc1cccc(-n2ncc3c(NC[C@H](C)NS(=O)(=O)c4c(C)cc(C)cc4C)cccc32)c1` [Example 9, 2,4,6-Trimethyl-N-((1S)-1-methyl-2-{[1-(3-methylphenyl)-1H-indazol-4-yl]amino}ethyl)benzenesulfonamide] was 3.8 nM.
Take `Cc1cc(C)c(S(=O)(=O)N[C@@H](C)CNc2cccc3c2cnn3-c2ccnc(F)c2)c(C)c1` [Example 10, N-((1S)-2-{[1-(2-Fluoropyridin-4-yl)-1H-indazol-4-yl]amino}-1-methylethyl)-2,4,6-trimethylbenzenesulfonamide]: the IC50 was determined as 7.1 nM.
In the case of `COc1ccc(-n2ncc3c(NC[C@H](C)NS(=O)(=O)c4c(C)cc(C)cc4C)cccc32)cn1` [Example 11, N-((1S)-2-{[1-(6-Methoxypyridin-3-yl)-1H-indazol-4-yl]amino}-1-methylethyl)-2,4,6-trimethylbenzenesulfonamide], the IC50 came out at 6.6 nM.
Take `Cc1ccc(-n2ncc3c(NC[C@H](C)NS(=O)(=O)c4c(C)cc(C)cc4C)cccc32)cc1` [Example 12, 2,4,6-Trimethyl-N-((1S)-1-methyl-2-{[1-(4-methylphenyl)-1H-indazol-4-yl]amino}ethyl)benzenesulfonamide]: the IC50 came to 3.9 nM.
With `Cc1cc(C)c(S(=O)(=O)N[C@@H](C)CNc2cccc3c2cnn3-c2cccc(F)c2)c(C)c1` [Example 13, N-((1S)-2-{[1-(3-Fluorophenyl)-1H-indazol-4-yl]amino}-1-methylethyl)-2,4,6-trimethylbenzenesulfonamide], the IC50 stood at 4 nM.
As for `Cc1cc(C)c(S(=O)(=O)N[C@@H](C)CNc2cccc3c2cnn3-c2ccncc2)c(C)c1` [Example 14, 2,4,6-Trimethyl-N-{(1S)-1-methyl-2-[(1-pyridin-4-yl-1H-indazol-4-yl)amino]ethyl}benzenesulfonamide], the figure is 4.3 nM; as for `Cc1cc(C)c(S(=O)(=O)N[C@@H](C)CNc2cccc3c2cnn3-c2cncnc2)c(C)c1` [Example 15, 2,4,6-Trimethyl-N-{(1S)-1-methyl-2-[(1-pyrimidin-5-yl-1H-indazol-4-yl)amino]ethyl}benzenesulfonamide], 5.4 nM; as for `Cc1cc(C)c(S(=O)(=O)N[C@@H](C)CNc2cccc3c2cnn3-c2cccnc2)c(C)c1` [Example 16, 2,4,6-Trimethyl-N-{(1S)-1-methyl-2-[(1-pyridin-3-yl-1H-indazol-4-yl)amino]ethyl}benzenesulfonamide], 5.6 nM.
The value for `Cc1cc(C)c(S(=O)(=O)N[C@@H](C)CNc2cccc3c2cnn3-c2ccc(F)c(C)c2)c(C)c1` [Example 17, N-((1S)-2-{[1-(4-Fluoro-3-methylphenyl)-1H-indazol-4-yl]amino}-1-methylethyl)-2,4,6-trimethylbenzenesulfonamide] was 4 nM; that for `Cc1cc(C)c(S(=O)(=O)N[C@@H](C)CNc2cccc3c2cnn3-c2cccc(C(=O)O)c2)c(C)c1` [Example 18, 3-[4-({(2S)-2-[(2,4,6-Trimethylbenzenesulfonyl)amino]propyl}amino)-1H-indazol-1-yl]benzoic acid] was 57 nM; that for `Cc1cc(C)c(S(=O)(=O)N[C@@H](C)CNc2cccc3c2cnn3-c2cccc(C(F)(F)F)c2)c(C)c1` [Example 19, 2,4,6-Trimethyl-N-[(1S)-1-methyl-2-({1-[3-(trifluoromethyl)phenyl]-1H-indazol-4-yl}amino)ethyl]benzene sulfonamide] was 260 nM.
In the case of `COCc1cccc(-n2ncc3c(NC[C@H](C)NS(=O)(=O)c4c(C)cc(C)cc4C)cccc32)c1` [Example 20, N-[(1S)-2-({1-[3-(Methoxymethyl)phenyl]-1H-indazol-4-yl}amino)-1-methylethyl]-2,4,6-trimethylbenzenesulfonamide], the IC50 came out at 4.4 nM.
With `COc1ccc(-n2ncc3c(NC[C@H](C)NS(=O)(=O)c4c(C)cc(C)cc4C)cccc32)cc1F` [Example 21, N-((1S)-2-{[1-(3-Fluoro-4-methoxy-phenyl)-1H-indazol-4-yl]amino}-1-methylethyl)-2,4,6-trimethylbenzenesulfonamide], the IC50 was determined as 2.7 nM.
Consider `Cc1cc(C)c(S(=O)(=O)N[C@@H](C)CNc2cccc3c2cnn3-c2ccc(Cl)cc2)c(C)c1` [Example 22, N-((1S)-2-{[1-(4-Chlorophenyl)-1H-indazol-4-yl]amino}-1-methylethyl)-2,4,6-trimethylbenzenesulfonamide], for which the IC50 is 3.5 nM.
Regarding `Cc1cc(C)c(S(=O)(=O)N[C@@H](C)CNc2c(C)ccc3c2cnn3-c2ccc(F)cc2)c(C)c1` [Example 23, N-((1S)-2-{[1-(4-Fluorophenyl)-5-methyl-1H-indazol-4-yl]amino}-1-methylethyl)-2,4,6-trimethylbenzenesulfonamide], the IC50 was 7.3 nM.
The value for `Cc1cc(C)c(S(=O)(=O)NC[C@@H](C)Nc2cccc3c2cnn3-c2ccc(F)cc2)c(C)c1` [Example 24, N-((2R)-2-{[1-(4-Fluorophenyl)-1H-indazol-4-yl]amino}propyl)-2,4,6-trimethylbenzenesulfonamide] was 8.7 nM; that for `Cc1nn(C2CCCC2)c(C)c1S(=O)(=O)N[C@@H](C)CNc1cccc2c1cnn2-c1ccc(F)cc1` [Example 25] was 3.8 nM; that for `Cc1nn(C2CCCC2)c(C)c1S(=O)(=O)N[C@@H](C)CNc1cccc2c1cnn2-c1ccc(F)nc1` [Example 26, 1-Cyclopentyl-N-((1S)-2-{[1-(6-fluoropyridin-3-yl)-1H-indazol-4-yl]amino}-1-methylethyl)-3,5-dimethyl-1H-pyrazole-4-sulfonamide] was 3 nM.
As for `Cc1nn(C2CCCC2)c(C)c1S(=O)(=O)N[C@@H](C)CNc1cccc2c1cnn2-c1ccc(OC(F)(F)F)cc1` [Example 27, 1-Cyclopentyl-3,5-dimethyl-N-[(1S)-1-methyl-2-({1-[4-(trifluoromethoxy)phenyl]-1H-indazol-4-yl}amino)ethyl]-1H-pyrazole-4-sulfonamide], the figure is 12 nM; as for `COc1ncc(-n2ncc3c(NC[C@H](C)NS(=O)(=O)c4c(C)nn(C5CCCC5)c4C)cccc32)cn1` [Example 28, 1-Cyclopentyl-N-((1S)-2-{[1-(2-methoxypyrimidin-5-yl)-1H-indazol-4-yl]amino}-1-methylethyl)-3,5-dimethyl-1H-pyrazole-4-sulfonamide], 23 nM.
